The target in series [1] is T1, uric acid-xanthine/H+ symporter (UapA) (Emericella nidulans, UniProt Q07307, G411V).
T1 construct: GFP; made in house; host or cells: Saccharomyces cerevisiae FGY217
Description: Thermal/structural stability of UapA by CPM fluorescence assay. Format: biochemical, Aspergillus nidulans. Particulars: for ability to conserve UapA transporter in a folded state: 125 minutes at 40° C. The procedure:
An experiment of measuring structural stability of a uric acid-xanthine/H+ symporter (UapA) separated from Aspergillus nidulans by TMG was performed. The structural stability of UapA was evaluated using a sulfhydryl-specific fluorophore and N-[4-(7-diethylamino-4-methyl-3-coumarinyl)phenyl]maleimide (CPM).
Specifically, UapAG411V1-11 (hereinafter, referred to as “UapA”) expressed as a GFP fusion protein from a Saccharomyces cerevisiae FGY217 strain, and the protein was separated using a sample buffer (20 mM Tris (pH 7.5), 150 mM NaCl, 0.03% DDM, 0.6 mM xanthine) according to a method disclosed in the article written by J. Leung et al. (Mol. Membr. Biol. 2013, 30, 32-42). The protein having a molecular weight of 100 kDa was concentrated to approximately 10 mg/mL using a cut-off filter (Millipore). The protein was diluted with a buffer containing each of the TMG-As (TMG-A11, TMG-A12, TMG-A13 and TMG-A14), TMG-Ts (TMG-T11, TMG-T12, TMG-T13 and TMG-T14), MNG-3 or DDM at a ratio of 1:150 to reach the final concentration of CMC+0.04 wt % or CMC+0.2 wt % in a Greiner 96-well plate. A CPM dye (Invitrogen) stored in DMSO (Sigma) was diluted with a staining buffer (20 mM Tris (pH 7.5), 150 mM NaCl, 0.03% DDM, 5 mM EDTA), and 3 μL of the staining buffer was added to each sample. The reaction mixture was incubated at a constant temperature for 125 minutes at 40° C. Fluorescence emission was recorded using a microplate spectrofluorometer set to each of excitation and emission wavelengths of 387 nm and 463 nm. A relative amount of folded proteins was plotted over time using GraphPad Prism.

The nature of series [2]: Hydrodynamic radius of micelles by dynamic light scattering (DLS). Format: physicochemical. Particulars: for Rh (nm), hydrodynamic radius of micelles: micelles formed by each agent at 1.0 wt %; for micelle size and homogeneity in words: 1.0 wt %, FIGS. 5 and 6. The procedure: A method of measuring the radius of the micelles is not particularly limited, and any method well known in the art, for example, a DLS test may be used.
(§1) Specifically, a CMC was measured using fluorescent staining and diphenylhexatriene (DPH), and the hydrodynamic radii (Rh) of micelles formed by each agent (1.0 wt %) were measured by a DLS test. The measured results were compared with those for the conventional amphipathic molecule (detergent), DDM, and thus are shown in Table 1.

Series [3] is described as follows: Critical micelle concentration by fluorescent staining with diphenylhexatriene (DPH). Format: physicochemical. To be noted: aqueous solution. As to the method:
A method of measuring CMC is not particularly limited, and any method well known in the art, for example, a fluorescent staining method using diphenylhexatriene (DPH) may be used.
as §1

Series [4] concerns LeuT (leucine transporter). Description: LeuT stability by [3H]-Leu substrate binding, scintillation proximity assay (SPA). In kind it is biochemical, Aquifex aeolicus. To be noted: for activity of LeuT after incubation, relative to DDM: CMC+0.04 wt %, after incubation at room temperature; for activity of LeuT after incubation, relative to DDM / activity of LeuT over time: FIG. 13a; for activity of LeuT over time: TMMs or DDM at CMC+0.04 wt %, incubation at room temperature. The procedure: An experiment of measuring LeuT protein stability for TMGs and TMMs was performed. (a) CMC+0.04 wt % or (b) CMC+0.2 wt % of each amphipathic molecule was used, and the evaluation of the LeuT protein stability was performed by taking an advantage of a characteristic of LeuT binding to a substrate through a scintillation proximity assay (SPA) using [^3H]-Leu. […]
Specifically, wild type LeuT (leucine transporter) derived from a thermophilic bacterium, Aquifex aeolicus, was purified by a previously-disclosed method (G. Deckert et al., Nature 1998, 392, 353-358). LeuT was expressed in E. coli C41 (DE3) transformed with pET16b encoding a C-terminus 8×His-tagged transporter (the expression plasmid was provided by Dr E. Gouaux, Vollum Institute, Portland, Oreg., USA). In summary, following isolation of a bacterial membrane and lysis with 1% (w/v) DDM, the protein was allowed to bind to a Ni^2+-NTA resin (Life Technologies, Denmark), and eluted in 20 mM Tris-HCl (pH 8.0), 1 mM NaCl, 199 mM KCl, 0.05% (w/v) DDM and 300 mM imidazole. Afterward, the purified LeuT (approximately 1.5 mg/ml) was diluted with the same buffer used above, from which DDM and imidazole were removed, and then supplemented with TMGs or DDM at the final concentration of CMC+0.04% (w/v). […] SPA was performed using a buffer containing 450 mM NaCl and each of the TMGs and TMMs at the predetermined concentration. The SPA reaction is performed in the presence of 20 nM [^3H]-Leucine and 1.25 mg/ml copper chelate (His-Tag) YSi beads (Perkin Elmer, Denmark). A total [^3H]-Leucine binding degree of each sample was measured using a MicroBeta liquid scintillation counter (Perkin Elmer).
In general terms: SPA uses beads or plates that emit light when radiolabelled molecules are held near them.

Data on nine molecules can be found in patent US10808003B2, “Amphipathic molecule based on tandem malonate and use thereof” (Industry-University Cooperation Foundation Hanyang …, priority 2017, dated 2020).

Structures are written as SMILES.

T1 sequence (Q07307 12-574 G411V): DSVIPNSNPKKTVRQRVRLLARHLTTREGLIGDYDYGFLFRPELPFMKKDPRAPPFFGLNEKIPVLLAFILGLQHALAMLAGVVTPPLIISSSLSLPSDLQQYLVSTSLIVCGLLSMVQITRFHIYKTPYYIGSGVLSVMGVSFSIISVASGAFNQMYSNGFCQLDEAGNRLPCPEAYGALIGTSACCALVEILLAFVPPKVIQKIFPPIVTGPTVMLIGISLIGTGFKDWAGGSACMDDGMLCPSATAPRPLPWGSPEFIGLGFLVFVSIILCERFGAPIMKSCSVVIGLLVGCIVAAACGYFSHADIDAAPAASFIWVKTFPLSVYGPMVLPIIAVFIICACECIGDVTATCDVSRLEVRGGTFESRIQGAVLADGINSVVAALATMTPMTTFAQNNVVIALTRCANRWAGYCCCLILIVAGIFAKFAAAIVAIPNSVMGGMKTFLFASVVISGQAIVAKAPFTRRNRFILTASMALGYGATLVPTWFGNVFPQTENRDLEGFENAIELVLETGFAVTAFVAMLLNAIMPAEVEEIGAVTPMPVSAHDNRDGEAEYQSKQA

`CCCCCCCCCCC(CCCCCCCCCC)(CO[C@@H]1O[C@H](CO)[C@@H](O[C@H]2O[C@H](CO)[C@@H](O)[C@H](O)[C@H]2O)[C@H](O)[C@H]1O)CO[C@@H]1O[C@H](CO)[C@@H](O[C@H]2O[C@H](CO)[C@@H](O)[C@H](O)[C@H]2O)[C@H](O)[C@H]1O` [MNG-3, reference compound]: in series [1] (concentration not given), the “ability to maintain the UapA transporter structure, comparison with MNG-3 and DDM” value was “a little superior to DDM”.

As to `CCCCCCCCCCCC(CCCC(CCCCCCCCCCC)(CO[C@@H]1OC(CO)[C@@H](O)C(O)C1O)CO[C@@H]1OC(CO)[C@@H](O)C(O)C1O)(CO[C@@H]1OC(CO)[C@@H](O)C(O)C1O)CO[C@@H]1OC(CO)[C@@H](O)C(O)C1O` (stereo partly shown) [TMG-A11], the “ability to conserve UapA transporter in a folded state” value in series [1] (CMC+0.04 wt %, FIG. 9) was “the least excellent in transporter stability”. Further, in series [1] (CMC+0.2 wt %, FIG. 10), the “ability to conserve UapA transporter in a folded state” value was “the least effective, and had lower stability than DDM”. The “Rh (nm), hydrodynamic radius of micelles” value in series [2] is on record as 3.1 ± 0.15 nm. Also, in series [3], the “CMC” value is around 0.015 mM and the “CMC (wt %)” value is recorded as around 0.0017 wt %.

Consider `CCCCCCCCCCCCOCC(CO[C@@H]1OC(CO)[C@@H](O)C(O)C1O)(CO[C@@H]1OC(CO)[C@@H](O)C(O)C1O)CSCC(COCCCCCCCCCCCC)(CO[C@@H]1OC(CO)[C@@H](O)C(O)C1O)CO[C@@H]1OC(CO)[C@@H](O)C(O)C1O` (stereo partly shown) [TMG-T12], for which the “Rh (nm), hydrodynamic radius of micelles” value in series [2] stood at 3.1 ± 0.06 nm. Moreover, in series [3], the “CMC” value was around 0.015 mM and the “CMC (wt %)” value is listed as around 0.0019 wt %. The “substrate-binding ability of LeuT” value in series [4] (TMGs or DDM at CMC+0.04 wt %, 10 days at room temperature) is given as “a better characteristic than DDM”.

Regarding `CC(C)CCC[C@@H](C)C1CCC2C3CCC4CC(OCC(CO[C@@H]5OC(CO)[C@@H](O[C@H]6OC(CO)[C@@H](O)C(O)C6O)C(O)C5O)(CO[C@@H]5OC(CO)[C@@H](O[C@H]6OC(CO)[C@@H](O)C(O)C6O)C(O)C5O)CSCC(COC5CCC6(C)C(CCC7C6CCC6(C)C7CCC6[C@H](C)CCCC(C)C)C5)(CO[C@@H]5OC(CO)[C@@H](O[C@H]6OC(CO)[C@@H](O)C(O)C6O)C(O)C5O)CO[C@@H]5OC(CO)[C@@H](O[C@H]6OC(CO)[C@@H](O)C(O)C6O)C(O)C5O)CCC4(C)C3CCC21C` (stereo partly shown) [TMM-A27], in series [2], the “micelle size and homogeneity in words” value is “large”; the “Rh (nm), hydrodynamic radius of micelles” value is given as 4.1 ± 0.10 nm. Also, in series [3], the “CMC” value is around 0.006 mM and the “CMC (wt %)” value is around 0.00014 wt %. Also, the “activity of LeuT after incubation, relative to DDM” value (shortened to “activity of LeuT … relative to DDM”) in series [4] was “protein activity similar to DDM”.

As for `CCCCCCCCCCC(CCCCCCCCCC)COCC(CO[C@@H]1OC(CO)[C@@H](O[C@H]2OC(CO)[C@@H](O)C(O)C2O)C(O)C1O)(CO[C@@H]1OC(CO)[C@@H](O[C@H]2OC(CO)[C@@H](O)C(O)C2O)C(O)C1O)CSCC(COCC(CCCCCCCCCC)CCCCCCCCCC)(CO[C@@H]1OC(CO)[C@@H](O[C@H]2OC(CO)[C@@H](O)C(O)C2O)C(O)C1O)CO[C@@H]1OC(CO)[C@@H](O[C@H]2OC(CO)[C@@H](O)C(O)C2O)C(O)C1O` (stereo partly shown) [TMM-C22], the “Rh (nm), hydrodynamic radius of micelles” value in series [2] stood at 3.6 ± 0.09 nm. Moreover, in series [3], the “CMC” value is around 0.002 mM and the “CMC (wt %)” value is around 0.00044 wt %. For the same molecule, in series [4], the “activity of LeuT … relative to DDM” value was “two-fold higher than that of the protein dissolved in DDM” and the “activity of LeuT over time” value is listed as “slightly increased over time”.

With `CCCCCCCCCCCC(CCCCCCCCCCC)COCC(CO[C@@H]1OC(CO)[C@@H](O[C@H]2OC(CO)[C@@H](O)C(O)C2O)C(O)C1O)(CO[C@@H]1OC(CO)[C@@H](O[C@H]2OC(CO)[C@@H](O)C(O)C2O)C(O)C1O)CSCC(COCC(CCCCCCCCCCC)CCCCCCCCCCC)(CO[C@@H]1OC(CO)[C@@H](O[C@H]2OC(CO)[C@@H](O)C(O)C2O)C(O)C1O)CO[C@@H]1OC(CO)[C@@H](O[C@H]2OC(CO)[C@@H](O)C(O)C2O)C(O)C1O` (stereo partly shown) [TMM-C24], the “Rh (nm), hydrodynamic radius of micelles” value in series [2] is listed as 3.9 ± 0.08 nm. For the same molecule, in series [3], the “CMC” value was around 0.0015 mM and the “CMC (wt %)” value was around 0.00034 wt %. In addition, the “overall LeuT stabilisation characteristic among TMMs” value in series [4] (CMC+0.04 wt % and CMC+0.2 wt %, FIGS. 13a and 13b) was “the most excellent characteristic and was superior to DDM”. Moreover, in series [4], the “activity of LeuT … relative to DDM” value was “two-fold higher than that of the protein dissolved in DDM” and the “activity of LeuT over time” value is “slightly increased over time”.

`CCCCCCCCCCCCC(CCCCCCCCCCCC)COCC(CO[C@@H]1OC(CO)[C@@H](O[C@H]2OC(CO)[C@@H](O)C(O)C2O)C(O)C1O)(CO[C@@H]1OC(CO)[C@@H](O[C@H]2OC(CO)[C@@H](O)C(O)C2O)C(O)C1O)CSCC(COCC(CCCCCCCCCCCC)CCCCCCCCCCCC)(CO[C@@H]1OC(CO)[C@@H](O[C@H]2OC(CO)[C@@H](O)C(O)C2O)C(O)C1O)CO[C@@H]1OC(CO)[C@@H](O[C@H]2OC(CO)[C@@H](O)C(O)C2O)C(O)C1O` (stereo partly shown) [TMM-C26]: the “Rh (nm), hydrodynamic radius of micelles” value in series [2] was determined as 4.3 ± 0.07 nm. In series [3], the “CMC” value is recorded as around 0.0015 mM and the “CMC (wt %)” value was around 0.00034 wt %. In addition, the “activity of LeuT … relative to DDM” value in series [4] is recorded as “protein activity similar to DDM”.

In the case of `CC1CCC2(OC1)OC1CC3C4CC=C5CC(OCC(CO[C@@H]6OC(CO)[C@@H](O[C@H]7OC(CO)[C@@H](O)C(O)C7O)C(O)C6O)(CO[C@@H]6OC(CO)[C@@H](O[C@H]7OC(CO)[C@@H](O)C(O)C7O)C(O)C6O)CSCC(COC6CCC7(C)C(=CCC8C7CCC7(C)C8CC8OC9(CCC(C)CO9)C(C)C87)C6)(CO[C@@H]6OC(CO)[C@@H](O[C@H]7OC(CO)[C@@H](O)C(O)C7O)C(O)C6O)CO[C@@H]6OC(CO)[C@@H](O[C@H]7OC(CO)[C@@H](O)C(O)C7O)C(O)C6O)CCC5(C)C4CCC3(C)C1C2C` (stereo partly shown) [TMM-D27], in series [2], the “micelle size and homogeneity in words” value is reported as “relatively small micelles”; the “Rh (nm), hydrodynamic radius of micelles” value is 3.1 ± 0.07 nm. In addition, in series [3], the “CMC” value was around 0.010 mM and the “CMC (wt %)” value is on record as around 0.0024 wt %. Besides, the “activity of LeuT … relative to DDM” value in series [4] is reported as “protein activity similar to DDM”.

Regarding `CC(C)CCC[C@@H](C)C1CCC2C3CC=C4CC(OCC(CO[C@@H]5OC(CO)[C@@H](O[C@H]6OC(CO)[C@@H](O)C(O)C6O)C(O)C5O)(CO[C@@H]5OC(CO)[C@@H](O[C@H]6OC(CO)[C@@H](O)C(O)C6O)C(O)C5O)CSCC(COC5CCC6(C)C(=CCC7C6CCC6(C)C7CCC6[C@H](C)CCCC(C)C)C5)(CO[C@@H]5OC(CO)[C@@H](O[C@H]6OC(CO)[C@@H](O)C(O)C6O)C(O)C5O)CO[C@@H]5OC(CO)[C@@H](O[C@H]6OC(CO)[C@@H](O)C(O)C6O)C(O)C5O)CCC4(C)C3CCC21C` (stereo partly shown) [TMM-E27], in series [2], the “micelle size and homogeneity in words” value is listed as “large”; the “Rh (nm), hydrodynamic radius of micelles” value was determined as 4.7 ± 0.10 nm. In series [3], the “CMC” value is given as around 0.008 mM and the “CMC (wt %)” value is listed as around 0.00018 wt %. Besides, the “activity of LeuT … relative to DDM” value in series [4] was “protein activity similar to DDM”.
